Assay results published in the supplement of paper PMC13380429.

Experiments:
Conditions in all cases: 72 h
Caco-2 [1] = test: cell viability relative to DMSO; higher = less toxic
Calu-3 [2] = test: as above
HepG2 [3] = test: as above
U2OS [4] = test: as above
Vero E6 [5] = test: as above
Caco-2 [6] = test: relative viability EC50 (midpoint between 100% and the lowest measured viability); higher = less toxic
Calu-3 [7] = test: as above
HepG2 [8] = test: as above
U2OS [9] = test: as above
Vero E6 [10] = test: as above
Caco-2 [11] = test: drug sensitivity score (DSS) for viability; higher = more toxic; extreme values may be limits of the assay
Calu-3 [12] = test: as above
HepG2 [13] = test: as above
U2OS [14] = test: as above
Vero E6 [15] = test: as above

Work on `Nc1nc2[nH]cnc2c(=S)[nH]1` [thioguanine] yielded a cell viability (Caco-2 [1]; 1 nM) of 101%, a cell viability (Caco-2 [1]; 10 nM) of 90.1% and a cell viability (Caco-2 [1]; 100 nM) of 94.6%. For the same molecule, the cell viability (Caco-2 [1]; 1000 nM) was 76.2%, the cell viability (Caco-2 [1]; 10000 nM) was 43.4% and the cell viability (Calu-3 [2]; 1 nM) was 99.6%. For the same molecule, the cell viability (Calu-3 [2]; 10 nM) was 103%, the cell viability (Calu-3 [2]; 100 nM) was 95% and the cell viability (Calu-3 [2]; 1000 nM) was 94.8%. It also gave a cell viability (Calu-3 [2]; 10000 nM) of 80.5%, a cell viability (HepG2 [3]; 1 nM) of 88.1% and a cell viability (HepG2 [3]; 10 nM) of 99%. The cell viability (HepG2 [3]; 100 nM) was 86.2%, the cell viability (HepG2 [3]; 1000 nM) was 84.1% and the cell viability (HepG2 [3]; 10000 nM) was 19.2%. It also gave a cell viability (U2OS [4]; 1 nM) of 104%, a cell viability (U2OS [4]; 10 nM) of 98.5% and a cell viability (U2OS [4]; 100 nM) of 94%. The cell viability (U2OS [4]; 1000 nM) was 67.4%, the cell viability (U2OS [4]; 10000 nM) was 25.1% and the cell viability (Vero E6 [5]; 1 nM) was 96.6%. It also gave a cell viability (Vero E6 [5]; 10 nM) of 103%, a cell viability (Vero E6 [5]; 100 nM) of 92.3% and a cell viability (Vero E6 [5]; 1000 nM) of 97.5%. The cell viability (Vero E6 [5]; 10000 nM) was 19.2%, the “relative viability EC50” value (Caco-2 [6]) was 1.19 µM and the “relative viability EC50” value (Calu-3 [7]) was greater than 10 µM. The “relative viability EC50” value (HepG2 [8]) was 1.75 µM, the “relative viability EC50” value (U2OS [9]) was 1.16 µM and the “relative viability EC50” value (Vero E6 [10]) was 2.94 µM. For the same molecule, the drug sensitivity score (Caco-2 [11]) was 5.7, the drug sensitivity score (Calu-3 [12]) was 0.9 and the drug sensitivity score (HepG2 [13]) was 7.1. It also gave a drug sensitivity score (U2OS [14]) of 7.9 and a drug sensitivity score (Vero E6 [15]) of 4.8.

In the case of `CCCC(C)C1(CC)C(=O)NC(=S)NC1=O` (stereo not given) [thiopental], the cell viability (Caco-2 [1]; 1 nM) is reported as 100%, the cell viability (Caco-2 [1]; 10 nM) is reported as 100% and the cell viability (Caco-2 [1]; 100 nM) is reported as 104%. The cell viability (Caco-2 [1]; 1000 nM) was 96.4%, the cell viability (Caco-2 [1]; 10000 nM) was 91% and the cell viability (Calu-3 [2]; 1 nM) was 99.6%. For the same molecule, the cell viability (Calu-3 [2]; 10 nM) was 98.6%, the cell viability (Calu-3 [2]; 100 nM) was 93.3% and the cell viability (Calu-3 [2]; 1000 nM) was 102%. The cell viability (Calu-3 [2]; 10000 nM) was 98.8%, the cell viability (HepG2 [3]; 1 nM) was 102% and the cell viability (HepG2 [3]; 10 nM) was 100%. For the same molecule, the cell viability (HepG2 [3]; 100 nM) was 101%, the cell viability (HepG2 [3]; 1000 nM) was 90.5% and the cell viability (HepG2 [3]; 10000 nM) was 89.5%. For the same molecule, the cell viability (U2OS [4]; 1 nM) was 100%, the cell viability (U2OS [4]; 10 nM) was 98.2% and the cell viability (U2OS [4]; 100 nM) was 99.9%. For the same molecule, the cell viability (U2OS [4]; 1000 nM) was 101%, the cell viability (U2OS [4]; 10000 nM) was 97.5% and the cell viability (Vero E6 [5]; 1 nM) was 96.2%. It also gave a cell viability (Vero E6 [5]; 10 nM) of 95.2%, a cell viability (Vero E6 [5]; 100 nM) of 94% and a cell viability (Vero E6 [5]; 1000 nM) of 95.7%. For the same molecule, the cell viability (Vero E6 [5]; 10000 nM) was 95.1%, the “relative viability EC50” value (Caco-2 [6]) was greater than 10 µM and the “relative viability EC50” value (Calu-3 [7]) was greater than 10 µM. For the same molecule, the “relative viability EC50” value (HepG2 [8]) was greater than 10 µM, the “relative viability EC50” value (U2OS [9]) was greater than 10 µM and the “relative viability EC50” value (Vero E6 [10]) was greater than 10 µM. The drug sensitivity score (Caco-2 [11]) was 0, the drug sensitivity score (Calu-3 [12]) was 0 and the drug sensitivity score (HepG2 [13]) was 0.1. It also gave a drug sensitivity score (U2OS [14]) of 0 and a drug sensitivity score (Vero E6 [15]) of 0.

Molecule `C[n+]1cccc(C(=O)[O-])c1` [trigonelline] has a cell viability (Caco-2 [1]; 1 nM) of 96.8%, a cell viability (Caco-2 [1]; 10 nM) of 83.1% and a cell viability (Caco-2 [1]; 100 nM) of 92.9%. The cell viability (Caco-2 [1]; 1000 nM) was 94%, the cell viability (Caco-2 [1]; 10000 nM) was 99.3% and the cell viability (Calu-3 [2]; 1 nM) was 102%. For the same molecule, the cell viability (Calu-3 [2]; 10 nM) was 103%, the cell viability (Calu-3 [2]; 100 nM) was 105% and the cell viability (Calu-3 [2]; 1000 nM) was 103%. For the same molecule, the cell viability (Calu-3 [2]; 10000 nM) was 95.7%, the cell viability (HepG2 [3]; 1 nM) was 89.2% and the cell viability (HepG2 [3]; 10 nM) was 95.9%. The cell viability (HepG2 [3]; 100 nM) was 91.8%, the cell viability (HepG2 [3]; 1000 nM) was 82.9% and the cell viability (HepG2 [3]; 10000 nM) was 90.5%. It also gave a cell viability (U2OS [4]; 1 nM) of 104%, a cell viability (U2OS [4]; 10 nM) of 95.5% and a cell viability (U2OS [4]; 100 nM) of 96.5%. It also gave a cell viability (U2OS [4]; 1000 nM) of 101%, a cell viability (U2OS [4]; 10000 nM) of 97.4% and a cell viability (Vero E6 [5]; 1 nM) of 99.6%. For the same molecule, the cell viability (Vero E6 [5]; 10 nM) was 82.5%, the cell viability (Vero E6 [5]; 100 nM) was 106% and the cell viability (Vero E6 [5]; 1000 nM) was 102%. The cell viability (Vero E6 [5]; 10000 nM) was 76.6%, the “relative viability EC50” value (Caco-2 [6]) was greater than 10 µM and the “relative viability EC50” value (Calu-3 [7]) was greater than 10 µM. For the same molecule, the “relative viability EC50” value (HepG2 [8]) was greater than 10 µM, the “relative viability EC50” value (U2OS [9]) was greater than 10 µM and the “relative viability EC50” value (Vero E6 [10]) was greater than 10 µM. The drug sensitivity score (Caco-2 [11]) was 0, the drug sensitivity score (Calu-3 [12]) was 0 and the drug sensitivity score (HepG2 [13]) was 0. It also gave a drug sensitivity score (U2OS [14]) of 0 and a drug sensitivity score (Vero E6 [15]) of 0.7.
